Some test systems named below: ACHN; OVCAR-3; NCI-H460; HL-60; KM12; UACC-257; HOP-62; SF-295; SR; LOX IMVI; Malme-3M; U-251; HCT-116; SK-MEL-28; RPMI-8226; NCI-H23; SW-620; HCT-15; MCF7.
Common to all, as to assay: DTP human tumour cell line panel, 48 h

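All cell lines were grown in 96-well plates and treated with compound for 48 hours. GI50 is the concentration that inhibits growth by half.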 The source made the active and inactive calls. Cut-off read from the data, not from the text of the source: active = GI50 up to about 1.1 µM and inactive = higher. Some results are limits rather than exact numbers.

By GI50 is commonly meant the concentration giving 50% growth inhibition. Turning to `O=C(c1ccccc1)c1nnc(C(=O)c2ccccc2)nn1`, the GI50 with ACHN, in the experiment with OVCAR-3, in the experiment with NCI-H460, with HL-60, in the experiment with KM12 and with UACC-257 was > 344 µM (inactive) in each case. The GI50 in the experiment on HOP-62 is > 344 µM (inactive); in the experiment with SF-295 it was 139 µM (inactive); in the experiment on SR it was 4.45 µM (inactive); in the experiment with LOX IMVI it was 282 µM (inactive); in the experiment on Malme-3M it was > 344 µM (inactive); in the experiment with U-251 it was 165 µM (inactive). In addition, the GI50 in the experiment with HCT-116 is > 344 µM (inactive); with SK-MEL-28, > 344 µM (inactive); in the experiment with RPMI-8226 it was > 344 µM (inactive); in the experiment on NCI-H23, 308 µM (inactive); in the experiment with SW-620, > 344 µM (inactive); with HCT-15, above 344 µM.

For `COc1cc(CNC(=O)[C@H](Cc2ccc(O)cn2)NC(C)=O)cc(OC)c1`, the GI50 in the experiment on MCF7 is > 100 µM (inactive); in the experiment with ACHN, > 100 µM (inactive); with OVCAR-3, 50.6 µM (inactive); in the experiment with NCI-H460, > 100 µM (inactive); with HL-60, 19.5 µM (inactive); with KM12, > 100 µM (inactive). The GI50 in the experiment on UACC-257 is 65.6 µM (inactive); in the experiment on HOP-62, > 100 µM (inactive); in the experiment on SF-295 it was > 100 µM (inactive); in the experiment on LOX IMVI it was > 100 µM (inactive); in the experiment on Malme-3M, > 100 µM (inactive); in the experiment on U-251, > 100 µM (inactive). The GI50 is 76.2 µM (inactive) with HCT-116; > 100 µM (inactive) in the experiment on SK-MEL-28; 29.5 µM (inactive) in the experiment with RPMI-8226; > 100 µM (inactive) in the experiment with NCI-H23; > 100 µM (inactive) with SW-620; above 100 µM in the experiment with HCT-15.

`OCCCCCNc1ccnc2cc(Cl)ccc12`: the GI50 with ACHN was > 100 µM (inactive); in the experiment with OVCAR-3, 65.5 µM (inactive); in the experiment on NCI-H460, 69.3 µM (inactive); with HL-60, 22 µM (inactive); in the experiment with KM12, > 100 µM (inactive); with UACC-257, > 100 µM (inactive). Also, the GI50 in the experiment on HOP-62 is > 100 µM (inactive); with SF-295 it was 47.3 µM (inactive); in the experiment with SR it was 19.5 µM (inactive); in the experiment on LOX IMVI, > 10 µM (inactive); in the experiment with Malme-3M, > 100 µM (inactive); in the experiment with U-251, > 100 µM (inactive). Also, the GI50 is 33.7 µM (inactive) with HCT-116; > 100 µM (inactive) in the experiment on SK-MEL-28; 31.3 µM (inactive) in the experiment with RPMI-8226; > 100 µM (inactive) in the experiment with NCI-H23; > 100 µM (inactive) in the experiment on SW-620; above 100 µM with HCT-15.

With `CCCCCCCC/C=C1\CCC(CN(C)C)C1=O` (stereo unspecified), the GI50 with ACHN was 6.61 µM (inactive); in the experiment on OVCAR-3, 7.18 µM (inactive); in the experiment on NCI-H460, 10.7 µM (inactive); in the experiment on HL-60, 5.05 µM (inactive); in the experiment on KM12 it was 2.31 µM (inactive); with UACC-257 it was 5.89 µM (inactive). Further, the GI50 is 12.2 µM (inactive) with HOP-62; 6.5 µM (inactive) with SF-295; 3.15 µM (inactive) with SR; 1.92 µM (inactive) in the experiment on LOX IMVI; 3.18 µM (inactive) in the experiment on Malme-3M; 2.14 µM (inactive) with U-251. Also, the GI50 was 2.96 µM (inactive) in the experiment on HCT-116; 3.89 µM (inactive) in the experiment on SK-MEL-28; 0.211 µM (active) with RPMI-8226; 10.7 µM (inactive) in the experiment on NCI-H23; 3.33 µM (inactive) in the experiment on SW-620; 2.77 µM with HCT-15.

Turning to `N#Cc1ccccc1C#C/C=C\C#Cc1ccccn1`, the GI50 is 14.4 µM (inactive) with MCF7; 29.6 µM (inactive) with ACHN; 4.27 µM (inactive) with OVCAR-3; 20.4 µM (inactive) in the experiment on NCI-H460; 6.71 µM (inactive) in the experiment on HL-60; 13.7 µM (inactive) in the experiment with UACC-257. Further, the GI50 is 19 µM (inactive) in the experiment with HOP-62; 20 µM (inactive) in the experiment on SF-295; 4.12 µM (inactive) in the experiment on SR; 19.3 µM (inactive) in the experiment with Malme-3M; 18.5 µM (inactive) in the experiment on U-251; 12 µM (inactive) in the experiment on HCT-116. The GI50 in the experiment on SK-MEL-28 was 17.5 µM (inactive); in the experiment with NCI-H23, 12.3 µM (inactive); with SW-620 it was 12.6 µM (inactive); in the experiment on HCT-15, 18.8 µM.

`CC(=O)ON(C(C)=O)C1C(COC(c2ccccc2)(c2ccccc2)c2ccccc2)OC2OC3(CCCC3)OC21` (stereo unspecified): the GI50 was 7.66 µM (inactive) in the experiment on ACHN; 5.37 µM (inactive) in the experiment with OVCAR-3; 6.75 µM (inactive) in the experiment on NCI-H460; 3.32 µM (inactive) in the experiment with HL-60; 5.09 µM (inactive) in the experiment on KM12; 11.6 µM (inactive) in the experiment on UACC-257. Besides, the GI50 is 11.6 µM (inactive) with HOP-62; 6 µM (inactive) in the experiment on SF-295; 3.2 µM (inactive) with SR; 8.18 µM (inactive) in the experiment on LOX IMVI; > 89.7 µM (inactive) with Malme-3M; 6.47 µM (inactive) in the experiment with U-251. The GI50 in the experiment with HCT-116 was 5.45 µM (inactive); with SK-MEL-28, > 100 µM (inactive); with RPMI-8226, 2.42 µM (inactive); with NCI-H23, 4.24 µM (inactive); with SW-620, 8.63 µM (inactive); in the experiment on HCT-15, 4.6 µM.

As to `CCN1C(=O)/C(=C\c2coc3ccccc3c2=O)SC1=S`, the GI50 with ACHN, in the experiment with OVCAR-3, in the experiment with NCI-H460, in the experiment with HL-60, in the experiment with KM12 and in the experiment with UACC-257 was > 100 µM (inactive) throughout. The GI50 in the experiment on HOP-62 was 61.9 µM (inactive); in the experiment on SF-295, 42 µM (inactive); with SR, 36.6 µM (inactive); in the experiment on LOX IMVI it was 42.1 µM (inactive); in the experiment on Malme-3M, > 100 µM (inactive); with U-251, 28.3 µM (inactive). In addition, the GI50 was 64 µM (inactive) with HCT-116; > 100 µM (inactive) in the experiment on SK-MEL-28; > 100 µM (inactive) with RPMI-8226; 58.9 µM (inactive) in the experiment on NCI-H23; 49.4 µM (inactive) in the experiment with SW-620; 39.1 µM with HCT-15.

On to `CN1C(c2ccccc2)CC(=O)C(N)C1c1ccccc1` (stereo unspecified), for which the GI50 with ACHN is 35.9 µM (inactive); in the experiment on OVCAR-3 it was 33.7 µM (inactive); with NCI-H460, 22.2 µM (inactive); in the experiment with HL-60, 20.6 µM (inactive); in the experiment with KM12, 23.9 µM (inactive); with UACC-257 it was 30.3 µM (inactive). Further, the GI50 in the experiment on HOP-62 was > 92.5 µM (inactive); with SF-295 it was 48.9 µM (inactive); in the experiment with SR it was 25 µM (inactive); with LOX IMVI, 18 µM (inactive); with Malme-3M, 22.1 µM (inactive); in the experiment on U-251, 21.4 µM (inactive). In addition, the GI50 in the experiment on HCT-116 was 18 µM (inactive); in the experiment on SK-MEL-28 it was 18.6 µM (inactive); in the experiment on RPMI-8226, 17.3 µM (inactive); with NCI-H23, 42.5 µM (inactive); with SW-620 it was 19.9 µM (inactive); in the experiment with HCT-15 it was 26.1 µM.

For the molecule `CCCCCCCCCCCCCCCCc1c(C(=O)OC)[nH]c(=S)[nH]c1=O`, the GI50 in the experiment with ACHN, with OVCAR-3, with NCI-H460, with HL-60, in the experiment with KM12 and with UACC-257 was > 50 µM (inactive) throughout. Also, the GI50 in the experiment on HOP-62 is > 50 µM (inactive); with SF-295 it was > 50 µM (inactive); in the experiment with SR, 0.0151 µM (active); with LOX IMVI, > 50 µM (inactive); with Malme-3M it was > 50 µM (inactive); with U-251 it was > 50 µM (inactive). The GI50 in the experiment on HCT-116 was > 50 µM (inactive); in the experiment with SK-MEL-28, > 50 µM (inactive); with RPMI-8226 it was > 50 µM (inactive); in the experiment on NCI-H23, > 50 µM (inactive); in the experiment on SW-620, > 50 µM (inactive); in the experiment with HCT-15, above 50 µM.

`CN(C)CN(C)c1nc(N(C)C)nc(N(C)C)n1`: the GI50 in the experiment on ACHN, with OVCAR-3, in the experiment with NCI-H460, in the experiment with HL-60, with KM12 and with UACC-257 was > 100 µM (inactive) each time. Also, the GI50 in the experiment on HOP-62, in the experiment on SF-295, in the experiment on SR, in the experiment with LOX IMVI, in the experiment with Malme-3M and with U-251 was > 100 µM (inactive) in each case. For the same molecule, the GI50 is > 100 µM (inactive) in the experiment with HCT-116; > 100 µM (inactive) in the experiment on SK-MEL-28; > 100 µM (inactive) in the experiment with RPMI-8226; > 100 µM (inactive) with NCI-H23; > 100 µM (inactive) in the experiment with SW-620; above 100 µM with HCT-15.

In the case of `O=C1C2C3C=CC(C2C(=O)N1COP(=O)(O)O)C1C2C(=O)N(COP(=O)(O)O)C(=O)C2C31` (stereo unspecified), the GI50 is > 91.2 µM (inactive) in the experiment on ACHN; > 100 µM (inactive) in the experiment on OVCAR-3; > 41.9 µM (inactive) with NCI-H460; 15.5 µM (inactive) with HL-60; > 100 µM (inactive) in the experiment on KM12; > 100 µM (inactive) in the experiment on UACC-257. For the same molecule, the GI50 is > 100 µM (inactive) in the experiment with HOP-62; > 100 µM (inactive) in the experiment with SF-295; 17.5 µM (inactive) in the experiment on SR; > 43.4 µM (inactive) in the experiment with LOX IMVI; > 100 µM (inactive) in the experiment with Malme-3M; > 70.5 µM (inactive) in the experiment with U-251. In addition, the GI50 in the experiment on HCT-116 is > 42.6 µM (inactive); in the experiment with SK-MEL-28, > 100 µM (inactive); with RPMI-8226, > 46.1 µM (inactive); in the experiment with NCI-H23, > 100 µM (inactive); in the experiment with SW-620, > 45.7 µM (inactive); with HCT-15 it was above 41.3 µM.

For the origin of these results see ChEMBL document CHEMBL1201862, “PubChem BioAssay data set” (2004).
